Laboratory results published in PMC10997755, “Discovery of a small-molecule inhibitor that traps Polθ on DNA and synergizes with PARP inhibitors” (Nature Communications, 2024).
Where “and” joins values, the source holds several entries; their conditions need not be identical. Identical values can stand only once. Entries after “also recorded” stand apart in the source; their conditions may differ.

Tests used:
Polθ-pol on DNA/DNA = molecular target: T1, Polθ-pol on DNA/DNA (Homo sapiens, UniProt O75417); assay: Relative rate of ddCMP addition on DNA/DNA; assay type: biochemical; conditions: for Average % Extension (Single nt) / % Extension (Single nt): DNA template, 2uM RTX-161; for Average % Extension (Single nt): average of 3 trials; for % Extension (Single nt): single trials 1-3
T1 construct: purified recombinant human Polθ-pol (comprising amino acid residues 1792–2590); made in house
T1 sequence (O75417 1792-2590): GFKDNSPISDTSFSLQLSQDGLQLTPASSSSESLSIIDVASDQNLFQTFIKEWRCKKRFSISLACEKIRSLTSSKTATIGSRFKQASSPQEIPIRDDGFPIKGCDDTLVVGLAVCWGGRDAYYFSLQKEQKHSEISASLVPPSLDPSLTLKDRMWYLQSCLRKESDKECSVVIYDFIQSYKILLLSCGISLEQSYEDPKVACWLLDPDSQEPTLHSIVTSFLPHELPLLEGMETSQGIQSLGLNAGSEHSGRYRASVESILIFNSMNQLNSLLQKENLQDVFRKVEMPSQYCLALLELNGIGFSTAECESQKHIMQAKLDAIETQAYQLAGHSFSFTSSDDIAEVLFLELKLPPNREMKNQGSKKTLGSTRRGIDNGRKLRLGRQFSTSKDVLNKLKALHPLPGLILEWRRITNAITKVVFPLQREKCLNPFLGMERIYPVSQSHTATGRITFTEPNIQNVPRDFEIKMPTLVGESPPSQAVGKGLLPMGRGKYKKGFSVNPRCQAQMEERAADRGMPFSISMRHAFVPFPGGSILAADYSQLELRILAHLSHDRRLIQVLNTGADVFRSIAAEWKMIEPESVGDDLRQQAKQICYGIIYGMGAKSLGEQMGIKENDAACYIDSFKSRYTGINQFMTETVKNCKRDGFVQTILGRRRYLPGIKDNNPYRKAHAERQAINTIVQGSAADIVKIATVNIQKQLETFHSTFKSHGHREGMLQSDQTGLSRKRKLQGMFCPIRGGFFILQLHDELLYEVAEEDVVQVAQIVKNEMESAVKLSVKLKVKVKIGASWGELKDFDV
Description: Relative rate of Polθ-pol dAMP addition. The relative rates of dAMP incorporation by Polq-pol in the presence of DMSO or MC160385 with various concentrations of dATP were measured using the following primer extension assay in vitro. 2 nM or Polθ-pol was incubated with 5’ ^32P-γ-ATP labeled 100 nM primer-template (RP469D/RP486) in 1X buffer (25 mM TrisHCl pH 7.8, 0.01% NP40, 10% glycerol, 1 mM DTT, 10 mM MgCl2, 0.1 mg/ml BSA) at room temp. 2.5% DMSO, 7.5 nM or 12 nM of MC160385 was added. Reactions were than initiated by the addition of 20, 50, 100, 200, or 300 μM dATP at room temp. Aliquots of the reactions were removed and terminated by the addition of 50 mM EDTA at 3, 3.5, 4 and 5 min after the reaction was initiated. Radio-labeled DNA was then resolved via denaturing 20% PAGE and visualized by Typhoon PhosphorImager (GE Amersham). Rates of dAMP incorporation were calculated from % extension of the prime-template which was determined using ImageJ software. Relative rate of ddCMP addition on DNA/DNA and DNA/RNA. 25 nM nucleic acid DNA/DNA or DNA/RNA primer-template (RP559/RP702 or RP559/RP702R) was mixed with 1X reaction buffer (20 mM TrisHCl pH 7.5, 0.01% NP-40, 0.5 mM DTT, 10% glycerol, 0.1 mg/ml BSA, 10 mM MgCl2) in the presence of 250 μM ddCTP at room temp. Next, 2 μM RTx-161 or 2.5% DMSO was added. Reactions were initiated by the addition of 10 nM Polθ-pol. Reaction aliquots were removed and terminated by the addition of 50 mM EDTA at the indicated time points. Radio-labeled DNA was then resolved via denaturing 20% PAGE and visualized by Typhoon PhosphorImager. Percent primer extension by single ddCMP addition at each time point was calculated from % extension of the prime-template which was determined using ImageJ software.

Polθ-pol = molecular target: T2, Polθ-pol (Homo sapiens, UniProt O75417); assay: Primer extension by recombinant Pols (selectivity); assay type: biochemical
T2 construct: purified recombinant human Polθ-pol (comprising amino acid residues 1792–2590); made in house
T2 sequence (O75417 1792-2590): T1 sequence (O75417 1792-2590)

[1] = test system: MMEJ reporter (EJ2-GFP) in U2OS cells; assay: Chromosomal MMEJ GFP assay; assay type: cell-based; conditions: for % GFP/dsRED ratio, Combined mean: Combined EXP.1-3 (0 uM: 3.78889); for % GFP/dsRED ratio, mean per experiment: means of EXP.1, 2, 3 (0 uM: 4.4, 3.73333, 3.23333); for % GFP/dsRED ratio: single replicates of EXP.1-3
Description: U2OS cells harboring the chromosomal (EJ2-GFP cassette) MMEJ reporter were plated and treated with various concentrations of RTX-161 for 16 h. Cells were co-transfected with either pCMV–3x- NLS-I-SceI or control vector pCMV-3x-NLS using Lipofectamine 2000 (Invitrogen) along with dsRED-Mito cDNA (control for transfection efficiency). GFP^+ frequencies were measured 3 days post transfection by FACS using Facscanto (Becton Dickinson) in triplicates and corrected for transfection efficiency and background events.

Which “inhibition of single nucleotide incorporation on DNA/DNA” value (Polθ-pol on DNA/DNA; 2 μM RTx-161, closed conformation) does the source give for CN(C(=O)Oc1c(N2CCN(CCO)C2=O)cc(C(F)(F)F)cc1C(F)(F)F)c1ccc(F)cc1 [RTx-161] here?
The value was “significant inhibition”.

What about the “Average % Extension (Single nt)” value (Polθ-pol on DNA/DNA; Time 0) of the same compound?
The value was 0.00%.

What about the “% Extension (Single nt)” value (Polθ-pol on DNA/DNA; Time 0) of the same compound?
The value was 0.00%.

What about the “Average % Extension (Single nt)” value (Polθ-pol on DNA/DNA; Time 0.5) of the same compound?
Its value is 11.29%.

What about the “% Extension (Single nt)” value (Polθ-pol on DNA/DNA; Time 0.5) of the same compound?
The value was 12.34% and 11.73% and 9.81%.

What about the “Average % Extension (Single nt)” value (Polθ-pol on DNA/DNA; Time 1) of the same compound?
Its value is 18.42%.

What about the “% Extension (Single nt)” value (Polθ-pol on DNA/DNA; Time 1) of the same compound?
The value was 20.67% and 19.99% and 14.59%.

What about the “Average % Extension (Single nt)” value (Polθ-pol on DNA/DNA; Time 2) of the same compound?
Its value is 25.83%.

What about the “% Extension (Single nt)” value (Polθ-pol on DNA/DNA; Time 2) of the same compound?
The value was 27.74% and 29.45% and 20.29%.

What about the “% Full Extension” value (Polθ-pol; Pol Theta) of the same compound?
Its value is 14.28%.

What about the “% Inhibition Compared to Control” value (Polθ-pol; Pol Theta) of the same compound?
The value was 85.17%.

And the “% Relative Maximum Extension” value (Polθ-pol; Pol Theta)?
Its value is 14.83%.

What about the “inhibition of primer extension” value (Polθ-pol; selectivity panel) of the same compound?
Its value is “selective inhibition”.

And the “% GFP/dsRED ratio, Combined mean” value ([1]; 5 uM)?
Its value is 3.422%.

What about the “% GFP/dsRED ratio, mean per experiment” value ([1]; 5 uM) of the same compound?
Its value is 3.067% and 3.933% and 3.267%.

And the “% GFP/dsRED ratio” value ([1]; 5 uM)?
Its value is 2.8% and 4% and 2.5% and 3.3% and 3.6% and 3.5% and 3.1% and 4.2% and 3.8%.

What about the “% GFP/dsRED ratio, Combined mean” value ([1]; 10 uM) of the same compound?
The value was 3.378%.

What about the “% GFP/dsRED ratio, mean per experiment” value ([1]; 10 uM) of the same compound?
The value was 3.067% and 3.8% and 3.267%.

And the “% GFP/dsRED ratio” value ([1]; 10 uM)?
The value was 2.9% and 3.3% and 2.6% and 3.2% and 3.9% and 3.4% and 3.1% and 4.2% and 3.8%.

What about the “% GFP/dsRED ratio, Combined mean” value ([1]; 15 uM) of the same compound?
The value was 2.733%.

What about the “% GFP/dsRED ratio, mean per experiment” value ([1]; 15 uM) of the same compound?
The value was 3.033% and 2.067% and 3.1%.

What about the “% GFP/dsRED ratio” value ([1]; 15 uM) of the same compound?
Its value is 2.9% and 2.2% and 3.3% and 2.8% (2×) and 2.1% and 3.4% and 1.9% and 3.2%.

And the “cellular MMEJ (GFP reporter)” value ([1]; 20 μM RTx-161)?
The value was “reduction in cellular MMEJ; also recorded: suppression of MMEJ”.

What about the “% GFP/dsRED ratio, Combined mean” value ([1]; 20 uM) of the same compound?
Its value is 1.611%.

And the “% GFP/dsRED ratio, mean per experiment” value ([1]; 20 uM)?
Its value is 1.8% and 1.367% and 1.667%.

What about the “% GFP/dsRED ratio” value ([1]; 20 uM) of the same compound?
The value was 1.9% and 1.3% and 1.8% and 1.6% (2×) and 1.5% and 1.2% and 1.7%.
